In PMC8998618, “A Pharmacokinetic and Metabolism Study of the TRPC6 Inhibitor SH045 in Mice by LC-MS/MS” (International Journal of Molecular Sciences, 2022):
“And” between values parts separate entries of the source, which are not always exact repeats. Identical values can stand only once.

Experiments:
[1] = appearance of SH045 in urine after i.v. administration; format: in vivo, mice; settings: 20 mg/kg BW i.v.
Protocol: Mouse renal elimination of SH045 was exploratorily monitored up to their first spontaneous micturition after i.v. administration (20 mg/kg BW). Samples of released urine were assigned to micturition periods of 10–30, 60–80, or 100–120 min following application. Mean urine concentrations of unmetabolized SH045 of 748 ± 31 (n = 3), 1056 ± 104 (n = 3), and 162 ± 17 nM (n = 6), respectively, were recorded.
Via heparin-coated catheters a maximum of 50 µL blood was collected from the tail vein at 0.25, 0.5, 1, 2, 3, 4, 6, 8, or 24 h after administration and immediately centrifuged at 4000× g at 4 °C for 10 min. For repeated administration 20 mg/kg BW SH045 were administered at 8:00 a.m. on five consecutive days, once a day. Blood was taken 1 h and 24 h after drug administration. Tissue samples were harvested from isoflurane-euthanized animals at indicated time points. Mice were transcardially perfused with PBS and dissected tissues were washed to remove remaining blood. Plasma and tissue samples were stored at −80 °C until analysis. Urine was collected by bladder puncture at indicated time points.
For tissue analysis, homogenates (10% in phosphate-buffered saline, PBS) were prepared. Homogenate, plasma, and urine were mixed with IS and extracted with ice-cold ACN, centrifuged, filtered and stored in the autosampler at 6 °C until analysis in duplicates by LC-MS/MS (details in Supplementary Materials SM4).

[2] = system: cytochrome P450 isoenzymes; assay: cytochrome P450 isoenzyme inhibition with isoform-specific inhibitors in liver microsomes; format: in vitro ADME, mouse and human; settings: MLM and HLM, 2 µM SH045, isoform-specific inhibitors
Protocol: To determine possible metabolizing pathways of SH045 in MLM and HLM, an in vitro inhibition approach was performed with CYP-isoform specific inhibitors. […]
homogenates, and shaken vigorousl y for 5 min. 40 µL urine was mixed with 4 µL of IS and extracted with 156 µL pure […]
All microsome incubations were stopped with 1 mL ice -cold ACN containing 5 µg/mL IS, vortexed for 1 min and cooled at -20 °C for 10 min.
After centrifugation of mixtures from tissue or microsomal incubations for 15 min at 4 °C, the supernatants were filtered through a 0.2 -µm-pore-size syringe filter and stored in the autosampler at 6 °C until analysis by LC-MS/MS as […]
SM5 Tissue binding of SH045
The tissue binding of SH045 was analyzed exemplarily in lung, liver and kidney homogenate using ultrafiltration [5]. […] 20 µL of the mixture and the filtrate were analyzed for SH045. […]
Testosterone (10 µM in ACN/DPBS 2/3, v/v) instead of SH045 was used as positive control and analyzed by an appropriate HPLC method with UV detection.
Negative controls contained either no NADPH, no MLM or HLM or none of them. The overall velocity (v) of degradation was calculated from altered SH045 concentration (∆c) obtained from reduction peak area ratio of SH045 as: v = ∆c / incubation time × concentration of enzyme × volume (nmol/ min × mg). […]

[3] = system: TRPC3/6 channels of rat pulmonary arterial smooth muscle cells (PASMC); set-up: method as in PMID 29522264; settings: cited from earlier work

urine concentration after 2 h relative to IC50 reported in vitro [1]: about 30 fold
mean urine concentration of unmetabolized SH045 ([1]; micturition period 10–30 min): 748 ± 31 nM
mean urine concentration of unmetabolized SH045 ([1]; micturition period 60–80 min): 1056 ± 104 nM
mean urine concentration of unmetabolized SH045 ([1]; micturition period 100–120 min): 162 ± 17 nM and 160 nM
cytochrome P450 isoenzymes metabolizing SH045 [2]: substrate of CYP3A4 and CYP2A6
SMILES: C=C[C@@](C)(O)CC[C@H]1C(=C)C[C@H](OC(=O)NC)[C@H]2C(C)(C)CCC[C@]12C [SH045, (1S,4S,4aR,8aS)-4-((S)-3-Hydroxy-3-methylpent-4-en-1-yl)-4a,8,8-trimethyl-3-methylenedecahydronaphthalen-1-yl methylcarbamate]
OAG-induced Ca^2+ entry [3]: inhibition
